{"source": "patent US11076597B2", "about": "“High stress resistant plant growth regulator and preparation method and use thereof” (SHANGHAI INSTITUTES FOR BIOLOGICAL SCIENCES, CHINESE …, priority 2015, dated 2021)", "key": {"[1]": {"target": "T1, PYL2 receptor-HAB1 complex (Arabidopsis thaliana, UniProt O80992)", "T1 construct": "made in house; host or cells: E. coli BL21 (DE3)", "T1 sequence (O80992 14-188)": "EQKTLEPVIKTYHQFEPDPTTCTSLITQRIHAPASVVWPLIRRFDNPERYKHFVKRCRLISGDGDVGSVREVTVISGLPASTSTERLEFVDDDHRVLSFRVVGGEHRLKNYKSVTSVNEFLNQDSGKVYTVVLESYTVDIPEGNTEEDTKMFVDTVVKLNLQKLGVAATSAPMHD", "T1 sequence (Q9CAJ0 172-511 partner limits assumed)": "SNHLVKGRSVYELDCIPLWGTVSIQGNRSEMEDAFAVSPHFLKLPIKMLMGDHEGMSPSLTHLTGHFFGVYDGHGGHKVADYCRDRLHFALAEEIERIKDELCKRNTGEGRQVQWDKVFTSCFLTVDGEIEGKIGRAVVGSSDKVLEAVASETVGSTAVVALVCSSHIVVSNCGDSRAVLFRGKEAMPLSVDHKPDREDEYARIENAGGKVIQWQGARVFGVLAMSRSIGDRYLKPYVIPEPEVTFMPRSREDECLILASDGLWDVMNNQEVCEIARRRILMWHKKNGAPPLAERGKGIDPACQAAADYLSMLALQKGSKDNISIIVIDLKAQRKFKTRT", "assay": "HAB1 phosphatase activity assay (SnRK2.6 phosphorylated polypeptide as substrate)", "type": "biochemical", "conditions": "FIG. 1a-1g; 100 nM HAB1, 500 nM PYL2", "procedure": "50 mM imidazole, pH 7.2, 5 mM MgCl2, 0.1% β-mercaptoethanol, 0.5 μg·ml^−1 BSA, 100 nM HAB1 protein with a Biotin tag sequence, 500 nM PYL2 receptor protein with 6×His-SUMO dual tag sequence and the corresponding concentration of (+)-ABA/0224/0304/0706/0708/0713/0715/1028c/0428/1022B/NC0F4 were contained in the reaction system. The reaction system was incubated at room temperature for 30 minutes, followed by a further reaction for 30 minutes after adding an 11-amino acid phosphorylated polypeptide as a substrate. The phosphorylated polypeptide is amino acid 170-180 of SnRK2.6 protein kinase, wherein phosphorylated serine at position 175 (with a sequence of HSQPKpSTVGTP, purchased from Kingsley Company) was a known HAB1 dephosphorylation target site. After 30 minutes, chromogenic reagent (purchased from BioVision) was added and the absorbance at 650 nm was read on a microplate reader (Molecular Devices)."}, "[2]": {"target": "T2, PYL2 receptor-HAB1 protein phosphatase complex (Arabidopsis thaliana, UniProt O80992)", "T2 construct": "made in house; host or cells: E. coli BL21 (DE3)", "T2 sequence (O80992 14-188)": "T1 sequence (O80992 14-188)", "T2 sequence (Q9CAJ0 172-511 partner limits assumed)": "T1 sequence (Q9CAJ0 172-511 partner limits assumed)", "assay": "AlphaScreen assay, PYL2 receptor binding to HAB1", "type": "biochemical", "conditions": "fraction of the EC50 of ABA; FIG. 2c, 2e-2g", "procedure": "(§1) The AlphaScreen kit (available from Perkin Elmer) was used, and the method was as follows: a 10× buffer (50 mM MOPS, pH 7.4, 50 mM NaF, 50 mM CHAPS, 0.1 mg/ml bovine serum albumin) diluted at 1:10, each of 100 nM HAB1 with Biotin tag sequence and PYR1/PYL1/PYL2/PYL7/GmPYL6/OsPYL2 protein with dual tags of 6×His and SUMO sequences, corresponding concentrations of (+)-ABA/0224/0304/0706/0708/0713/0715/0428/NC0F4, and 5 μg/ml donor beads and acceptor beads (available from Perkin Elmer) were contained in 150 μl of experimental system. After incubating for 1.5 hours at room temperature in the dark, it was placed into an Envision Plate Reader (available from Perkin Elmer) under the programmed AlphaScreen procedure for readings.\n(§2) AlphaScreen technology was used to test the ability of the compounds of the present invention to promote PYL receptor binding to PP2C protein phosphatase (HAB1)."}, "[3]": {"target": "T2, PYL2 receptor-HAB1 protein phosphatase complex", "assay": "AlphaScreen assay: promotion of PYL2 receptor binding to PP2C protein phosphatase HAB1", "conditions": "6×His-SUMO-tagged PYL2 (aa 14-188), Biotin-tagged HAB1 (aa 172-511), 100 nM each, pH 7.4, 1.5 h room temperature, read-out: EC50", "from_the_text": "(§3) The construction method of recombinant plasmids for the Arabidopsis thaliana genes PYL1 (amino acid sequence 36-211), PYL2 (amino acid sequence 14-188) with dual tags of 6×His and SUMO sequence and the Arabidopsis thaliana gene HAB1 (amino acid sequence 172-511) with the Biotin tag sequence is described in detail in “A gate-latch-lock mechanism for hormone signaling by abscisic acid receptors” (Nature, Vol 462, 2009). The construction method of recombinant plasmids for PYR1 and PYL7 (whole gene coding sequence) and Soybean GmPYL6 and rice OsPYL2 with dual tags of 6×His and SUMO sequence is the same as that for Arabidopsis PYL2.\n(§4) The above recombinant plasmid is transformed into competent cell of E. coli BL21 (DE3) (purchased from NEB company), and inoculated into 200 ml of LB liquid medium containing Amp resistance (purchased from OXOID company) and cultured overnight at 37° C. at 200 rpm; and inoculated into 2 L of LB liquid medium containing Amp resistance at a ratio of 1:50-1:100 for an extended culture, and cultured at 37° C., 200 rpm for 3-4 hours, and at a low temperature of 16° C. until OD600 is about 0.8-1.0. Recombinant plasmids for PYR1/PYL1/PYL2/PYL7/GmPYL6/OsPYL2 with dual tags of 6×His and SUMO sequence were induced overnight with 100 μM of IPTG while HAB1 recombinant plasmid with the Biotin tag sequence was induced simultaneously with 100 μM of IPTG and 40 μM of biotin.\n(§5) After 16 hours of induction, the bacterial solution was centrifuged at 4000 rpm for 20 minutes at 4° C. in a low-speed high-capacity centrifuge, and the bacteria cells were collected. Bacteria cells were resuspended in 50 ml of extraction buffer (containing 20 mM Tris, pH 8.0, 200 mM NaCl and 10% (v/v) glycerol) for per 2 L of bacterial solution and then subjected to pressure-breaking at […] and 4° C. for 3-5 times. The broken cells were subjected to ultracentrifugation, centrifuged at 16000 rpm for 30 minutes, and this process was repeated twice. The supernatant was collected and subjected to an affinity chromatography column.\n(§6) For PYR/PYL proteins with dual tags of 6×His and SUMO sequences, 50 ml of affinity chromatography Ni column (50 ml Ni-NTA column, available from GE) was used. Firstly, the column was equilibrated with 600 ml of 10% buffer B (containing 20 mM Tris, PH 8.0, 200 mM NaCl, 500 mM imidazole and 10% glycerol), and then eluted with 200 ml of 50% buffer B and finally eluted with 100 ml of 100% buffer B. Proteins for crystal analysis were mixed with ulp1 enzyme at a molar ratio of 1000:1 for enzymatic dialysis overnight. The digested proteins were subjected to affinity chromatography on a Ni column once more. The collected solution was subjected to a HiLoad 26/60 Superdex200 gel filtration column (commercially available from GE) and eluted with an elution solution (containing 25 mM Tris, pH 8.0, 200 mM ammonium acetate, 1 mM dithiotreitol and 1 mM EDTA) to further separate and purify the protein.\nFor a HAB1 protein with a Biotin tag sequence, it was subjected to a 50 ml MBP affinity column (available from GE). The column was firstly equilibrated with 600 ml of 10% buffer C (containing 20 mM Tris, pH 8.0, 200 mM NaCl, 10 mM Maltose and 10% Glycerol), and eluted with 200 ml of 50% buffer C and finally eluted with 100 ml of 100% buffer C. The collection solution was subjected to a HiLoad 26/60 Superdex200 gel filtration column and eluted with an elution solution (containing 20 mM Tris, pH 8.0, 200 mM NaCl and 10% Glycerol) to further separate and purify the protein. […]"}, "[4]": {"target": "T3, PYR1 receptor-HAB1 protein phosphatase complex (Arabidopsis thaliana, UniProt O49686)", "T3 construct": "made in house; host or cells: E. coli BL21 (DE3)", "T3 sequence (O49686 1-191)": "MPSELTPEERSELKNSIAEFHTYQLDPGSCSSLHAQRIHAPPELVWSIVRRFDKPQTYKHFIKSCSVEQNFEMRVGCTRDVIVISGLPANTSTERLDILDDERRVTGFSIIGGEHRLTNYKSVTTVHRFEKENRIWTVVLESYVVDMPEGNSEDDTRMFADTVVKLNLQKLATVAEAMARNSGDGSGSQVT", "T3 sequence (Q9CAJ0 172-511 partner limits assumed)": "T1 sequence (Q9CAJ0 172-511 partner limits assumed)", "assay": "AlphaScreen assay, PYR1 receptor binding to HAB1", "type": "biochemical", "conditions": "fraction of the EC50 of ABA; FIG. 2a, 2h", "procedure": "as §1, §2"}, "[5]": {"target": "T3, PYR1 receptor-HAB1 protein phosphatase complex", "assay": "AlphaScreen assay: promotion of PYR1 receptor binding to PP2C protein phosphatase HAB1", "conditions": "FIG. 2h; 6×His-SUMO-tagged PYR1 (whole coding sequence), Biotin-tagged HAB1 (aa 172-511), 100 nM each; pH 7.4; 1.5 h room temperature; read-out: EC50", "from_the_text": "as §3, §4, §5, §6\nFor a HAB1 protein with a Biotin tag sequence, it was subjected to a 50 ml MBP affinity column (available from GE). The column was firstly equilibrated with 600 ml of 10% buffer C (containing 20 mM Tris, pH 8.0, 200 mM NaCl, 10 mM Maltose and 10% Glycerol), and eluted with 200 ml of 50% buffer C and finally eluted with 100 ml of 100% buffer C. […]"}, "[6]": {"test_system": "ABA-induced environmental stress-related gene (COR15a, COR47, RAB18 and RD29b)", "assay": "Gene expression analysis (fluorescence quantitative PCR)", "type": "in vivo, Arabidopsis thaliana (Col-0)", "conditions": "10 μM, 6 hours, 10-day-aged seedlings; FIG. 10", "procedure": "The whole plant or leaves were taken, and RNA extraction was carried out by using conventional methods. After reverse transcription, the fluorescence quantitative PCR was carried out. Three biological samples were taken for each treatment which was performed twice. The ACT7 gene was used as a reference gene."}}, "note": "“Also recorded” adds a separate entry of the source. Read-outs that look alike come from different tables or passages of the source."}
{"molecule": "CCCN1C(=O)NC(C)c2cc(NS(=O)(=O)Cc3c(F)c(F)c(C)c(F)c3F)ccc21", "note": "(stereo not drawn) [Compound 1028c]", "values": [{"measurement": "inhibition of HAB1 protein phosphatase activity by promoting binding between PYL2 receptor and HAB1", "setting": "[1]", "value": "inhibiting the activity of protein phosphatase HAB1; also recorded: inhibiting the dephosphorylation effect of HAB1 on SnRK2.6 phosphorylated polypeptide"}]}
{"molecule": "Cc1c(F)c(F)c(CS(=O)(=O)Nc2ccc3c(c2)C(C)OC(=O)N3C(C)C)c(F)c1F", "note": "(stereo not drawn) [Compound 0708]", "values": [{"measurement": "inhibition of HAB1 protein phosphatase activity by promoting binding between PYL2 receptor and HAB1", "setting": "[1]", "value": "inhibiting the activity of protein phosphatase HAB1; also recorded: inhibiting the dephosphorylation effect of HAB1 on SnRK2.6 phosphorylated polypeptide"}, {"measurement": "EC50 value with PYL2 receptor-HAB1 complex as fraction of that of ABA", "setting": "[2]", "value": "⅕-⅛"}, {"measurement": "EC50", "setting": "[3]; FIG. 2e", "value": 136, "unit": "nM"}]}
{"molecule": "CCCN1C(=O)NCc2cc(NS(=O)(=O)Cc3c(F)c(F)c(C)c(F)c3F)ccc21", "note": "[Compound NC0F4]", "values": [{"measurement": "inhibition of HAB1 protein phosphatase activity by promoting binding between PYL2 receptor and HAB1", "setting": "[1]", "value": "inhibiting the activity of protein phosphatase HAB1; also recorded: inhibiting the dephosphorylation effect of HAB1 on SnRK2.6 phosphorylated polypeptide"}, {"measurement": "EC50 value with PYR1 receptor-HAB1 complex as fraction of that of ABA", "setting": "[4]", "value": "about 1/11"}, {"measurement": "EC50 value with PYL2 receptor-HAB1 complex as fraction of that of ABA", "setting": "[2]", "value": "better PYL2 receptor affinity over ABA"}, {"measurement": "EC50", "setting": "[5]", "value": 373, "unit": "nM"}]}
{"molecule": "CCCn1c(=O)ccc2cc(NS(=O)(=O)Cc3ccc(C)cc3)ccc21", "note": "[Compound 1022B]", "values": [{"measurement": "inhibition of HAB1 protein phosphatase activity by promoting binding between PYL2 receptor and HAB1", "setting": "[1]", "value": "inhibiting the activity of protein phosphatase HAB1; also recorded: inhibiting the dephosphorylation effect of HAB1 on SnRK2.6 phosphorylated polypeptide"}, {"measurement": "EC50 value with PYL2 receptor-HAB1 complex as fraction of that of ABA", "setting": "[2]", "value": "one order of magnitude lower than that of ABA"}, {"measurement": "EC50", "setting": "[3]; FIG. 2g", "value": 180, "unit": "nM"}, {"measurement": "expression level of COR15a, COR47, RAB18 and RD29b", "setting": "[6]", "value": "all higher than those of ABA; also recorded: significantly increased"}]}
{"molecule": "Cc1c(F)c(F)c(CS(=O)(=O)Nc2ccc3c(c2)C(C)OC(=O)N3CC(C)C)c(F)c1F", "note": "(stereo not drawn) [Compound 0713]", "values": [{"measurement": "inhibition of HAB1 protein phosphatase activity by promoting binding between PYL2 receptor and HAB1", "setting": "[1]", "value": "inhibiting the activity of protein phosphatase HAB1; also recorded: inhibiting the dephosphorylation effect of HAB1 on SnRK2.6 phosphorylated polypeptide"}, {"measurement": "EC50 value with PYL2 receptor-HAB1 complex as fraction of that of ABA", "setting": "[2]", "value": "⅕-⅛"}, {"measurement": "EC50", "setting": "[3]; FIG. 2e", "value": 181, "unit": "nM"}]}
